Results reported in patent US20250332249A1, “CYTOM[…] CELL EPITOPES AND USES THEREOF” (LA JOLLA INSTITUTE FOR IMMUNOLOGY, priority 2021, published 2025).
Where no end group is shown, it is not given here.

System: PBMCs from HCMV seropositive subjects
Experiment: ex vivo IFN-γ Fluorospot assay
Type: cell-based, human
Settings: 19 HCMV seropositive subjects, individual peptide 10 ug/ml, 20 hr; for No. of subjects responding: IFN-γ; for Magnitude of response: IFN-γ spots (FIG. 1: SFC/10^6 PBMC; no unit in table)
Protocol: To define the targets of HCMV-specific T cell epitopes recognized in healthy adults, the inventors screened PBMCs of 19 subjects, 10 males and 9 females, recruited from San Diego blood bank (SDBB). The HCMV seropositivity of all the subjects was confirmed by IgG ELISA (FIG. 6A). A total of 2593 HCMV peptides covering a total of 563 ORFs (1) were tested. However, as many of these predicted ORFs overlapped 100% with others, as they were internal to longer ORFs, these 563 contained 359 completely unique ORFs composed of ˜150“canonical” ORFs, and an additional ˜200 identified by ribosomal RNA profiling (1). These peptides corresponded to predicted dominant epitopes, based on a bioinformatic method that predicts promiscuous binding to HLA class II molecules (40). Each of the ORFs above was covered by multiple predicted epitopes (with a minimum of at least 2), with the exception of very small ORFs (less than 15-20 amino acid residues), in which case at least one peptide was synthetized. The 2593 peptides were arranged in 89 pools of 28-30 15-mer peptides. PBMC reactivity of each of the 89 pools was assayed directly ex vivo using an IFN-γ Fluorospot assay.
For the initial CMV ORF screen, the responses of 19 CMV-seropositive subjects were evaluated. PBMCs were stimulated with 89 pools covering 563 ORFs of HCMV. Each pool comprised of 28-30 15-mer peptides overlapping by 10 residues. PBMCs that were found reactive to a pool were further tested against individual peptides contained in the pool using IFN-γ Fluorospot assay.
PBMC were thawed, washed and counted for viability using the trypan blue exclusion method. 200,000 cells were plated in triplicates and stimulated with pools (2 ug/ml) or peptides (10 ug/ml), PHA (10 ug/ml) or medium containing equivalent amount of DMSO in 96-well plates (Immubilion-P, Millipore) previously coated with anti IFN-γ antibody (1-DIK, Mabtech, Stockholm, Sweden). After 20 hr incubation at 37° C., cells were discarded and wells were washed six times with PBS/0.05% Tween 20 using an automated plate washer and further incubated with IFN-γ antibody (7-B6-1-FS-BAM) for 2 hrs at room temperature. After incubation, wells were washed and incubated with fluorophore conjugated anti-BAM-490 antibody for 1 hr at room temperature. Finally, the plates were washed and incubated with fluorescence enhancer for 15 min, blotted dry and fluorescent spots were counted by computer assisted image analysis (IRIS Fluorospot reader, Mabtech, Sweden).
Each pool or peptide was considered positive compared to the background that had equivalent amount of DMSO based on the following criteria: (i) 20 or more spot forming cells (SFC) per 10^6 PBMC after background subtraction, (ii) the stimulation index greater than 2, and (iii) p<0.05 by student's t test or Poisson distribution test

Row | Substance | No. of subjects responding | Magnitude of response
1 | 205 (VVAYVILERLWLAAR) [compound 205] | 1 | 23
2 | 163 (MFFLAIRDHDTAGGI) [compound 163] | 1 | 1637
3 | 56 (RHRFLWQRRRRARLL) [compound 56] | 1 | 1000
4 | 64 (MLFFQRYAPAFVTGY) [compound 64] | 1 | 57
5 | 49 (GRLMEVRQRNGRLRR; ends and bridges not checked) [compound 49] | 1 | 30
6 | 5 (QGATYQLSIVRQAMQ; ends and bridges not checked) [compound 5] | 1 | 650
7 | 31 (ARNLMEFARVGLRAV) [compound 31] | 1 | 1450
8 | 87 (NIFLVGFYLLVPYLG) [compound 87] | 1 | 1633
9 | 26 (VLATLAAVRTRRRSV) [compound 26] | 2 | 340
10 | 93 (QTIYFLGLTALLLRY) [compound 93] | 1 | 583
11 | 41 (GMKTVAFDLSSPQKS; ends and bridges not checked) [compound 41] | 1 | 193
12 | 2 (RYNALTVRSRDSLLL) [compound 2] | 2 | 204
13 | 178 (YRNMIIHAATPVDLL) [compound 178] | 2 | 130
14 | 148 (AGLMMMRRMRRAPAE) [compound 148] | 1 | 490
15 | 84 (QILWTDGLARRTRDR) [compound 84] | 1 | 37
16 | 191 (FYMNWTLRRSQTHYL) [compound 191] | 6 | 16883
17 | 47 (LTLRRTIGTLSRLVP; ends and bridges not checked) [compound 47] | 1 | 163
18 | 10 (MLGIRAMLVMLDYYW) [compound 10] | 1 | 350
19 | 173 (EAIVAYTLATAGASS) [compound 173] | 3 | 19333
20 | 225 (VVFMGRFSRVYAYDT) [compound 225] | 1 | 70
21 | 221 (DFRDLLNFIRQRLCC) [compound 221] | 1 | 30

Row | Substance | No. of subjects responding | Magnitude of response
22 | 7 (MRTVPVTKLYTSRMV) [compound 7] | 1 | 5677
23 | 157 (HLGWQTLSNHVIRRL) [compound 157] | 1 | 127
24 | 136 (VRSLAVDAQHAAKRV; ends and bridges not checked) [compound 136] | 1 | 53
25 | 189 (HVRLLSYRGDPLVFK) [compound 189] | 3 | 333
26 | 67 (TDLIRFERNIVCTSM) [compound 67] | 3 | 273
27 | 155 (MSATRHHRCCTLRFR) [compound 155] | 1 | 277
28 | 220 (QIYARSLAADYLCCD) [compound 220] | 1 | 33
29 | 94 (SFYLVNAMSRNLFRV) [compound 94] | 1 | 43
30 | 69 (HTFKVRVYQKVLTFR) [compound 69] | 1 | 423
31 | 118 (RPKRRVVAPFRVAAA; ends and bridges not checked) [compound 118] | 2 | 283
32 | 164 (LQTMLRKEVNSQLSL) [compound 164] | 2 | 1606
33 | 37 (RDVVALVNFLRHLTQ; ends and bridges not checked) [compound 37] | 1 | 1710
34 | 50 (WPERCFIQLRSRSAL; ends and bridges not checked) [compound 50] | 3 | 313
35 | 233 (HDPLGLTRFIMRQLM) [compound 233] | 1 | 473
36 | 133 (MLIQQYVLSQYYIKK; ends and bridges not checked) [compound 133] | 1 | 20
37 | 79 (AILSAIYNKPIAARF) [compound 79] | 5 | 11264
38 | 100 (PKSFTLTRIHPEYIV) [compound 100] | 2 | 340
39 | 183 (IAITMVMRFWQYING) [compound 183] | 3 | 163
40 | 51 (GPGFMRYQLIVLIGQ; ends and bridges not checked) [compound 51] | 1 | 3167
41 | 139 (PWYPITQARTLELTP) [compound 139] | 2 | 996
42 | 81 (YLFKRMIDLSSISTV) [compound 81] | 1 | 67

Row | Substance | No. of subjects responding | Magnitude of response
43 | 55 (RRRFKVCDVGRRHII) [compound 55] | 1 | 63
44 | 131 (PFTVLRLSYAYRIFA; ends and bridges not checked) [compound 131] | 1 | 33
45 | 101 (PEYIVQIQNAFETNQ) [compound 101] | 4 | 527
46 | 215 (VCAFCWLVLPHRLEQ) [compound 215] | 1 | 1960
47 | 60 (KFIFELYRLPRLSIA) [compound 60] | 1 | 173
48 | 77 (LRGYINRALAQIAEA) [compound 77] | 3 | 30337
49 | 144 (TFDVRQFVFDNARLV) [compound 144] | 6 | 13736
50 | 99 (LFIIAFFSREPTKDL) [compound 99] | 1 | 190
51 | 192 (QVEILKPRGVRHRAI) [compound 192] | 9 | 3468
52 | 209 (PWWRRLRVKRPKFPS) [compound 209] | 1 | 240
53 | 80 (ASCVTINQTSVKVLR) [compound 80] | 5 | 8941
54 | 222 (PSQEILLLCARHLDE) [compound 222] | 3 | 110
55 | 179 (VMVRIFSTNQGGFML) [compound 179] | 2 | 3560
56 | 150 (CEIKPYVVNPVVATA) [compound 150] | 3 | 2583
57 | 8 (AITLFFFLLALRIPQ) [compound 8] | 1 | 207
58 | 59 (MPVQRLTVNVARCVF) [compound 59] | 1 | 20
59 | 36 (SLQFIGLQRRDVVAL; ends and bridges not checked) [compound 36] | 1 | 83
60 | 32 (TGLVLLLLLLVVRLL) [compound 32] | 1 | 1440
61 | 58 (FLKKMLLCALKGRAS) [compound 58] | 1 | 930
62 | 231 (YNRMVRFIINYVGKW) [compound 231] | 1 | 23
63 | 119 (APFRVAAAGETPLGR; ends and bridges not checked) [compound 119] | 6 | 1089
